The structures appear in SMILES notation. Values after ≈ are worked out from the molar mass of the structure shown. Values joined by “and” are separate entries in the source; they are usually repeats but may differ in a detail not shown here. Equal entries are not always repeated.

The conditions of one data set: mdck_mdr1.
Consider `Cc1c(C(=O)Nc2cc(-c3cccnc3)ccn2)cc(C2CC2)n1C`, for which the Papp came to 13.5 ×10⁻⁶ cm/s. On to `O=C(N[C@H]1[C@H]2CCCCC[C@H]2[C@H]1C(=O)Nc1cccc(C2CCNCC2)c1)OCc1ccccc1` (racemic), for which the apparent permeability coefficient (Papp) was 0.395 ×10⁻⁶ cm/s. The same measure, in the same setting: the figure for `NCc1cccc(NC(=O)C[C@H](NC(=O)OCc2ccccc2)c2ccc(OCc3ccccc3)c(Br)c2)c1` (racemic) is 0.783 ×10⁻⁶ cm/s. `C=CC[C@H](Nc1cccc(-c2nn[nH]n2)c1)c1cc(Cl)cc(NC(=O)OCc2ccccc2)c1` (racemic): the apparent permeability (Papp) was found to be 1.24 ×10⁻⁶ cm/s. Against the preceding compound, the Papp is about 1.6-fold higher. Still for that read-out and setting: next, `NCc1cccc(NC(=O)C[C@H](NC(=O)OCc2ccccc2)c2ccc(OCc3ccccc3)cc2)c1` (racemic): 1.04 ×10⁻⁶ cm/s.

Consider `c1ccc2c(CN3CCC(c4c[nH]c5cccnc45)CC3)c[nH]c2c1`, for which the Papp was 4.6 ×10⁻⁶ cm/s. Compared with the last compound, the Papp is about 4.4-fold higher. `O=C(Nc1cc(Cl)cc([C@H]2CN(Cc3ccccc3)C[C@@H]2c2cccc(-c3nn[nH]n3)c2)c1)OCc1ccccc1` (racemic) yielded a Papp of 0.2 ×10⁻⁶ cm/s. `Nc1nc(-c2ccccc2)nc2[nH]nc(Nc3ccc(C(F)(F)F)cc3)c12` came in with a Papp of 1.76 ×10⁻⁶ cm/s. Still for that read-out and setting: the figure for `CNC(=O)c1c[nH]c2ncnc(N[C@H](c3ccc4c(c3)S(=O)(=O)CCC4)C(C)C)c12` (single isomer, unassigned) is 1.61 ×10⁻⁶ cm/s and 0.857 ×10⁻⁶ cm/s. Same read-out and setting: the figure for `CC[C@H](Cc1nnn[nH]1)c1ccc(NC(=O)c2cc(Cl)cc(NC(=O)OCc3ccccc3)c2)cc1` (racemic) is 2.79 ×10⁻⁶ cm/s; for `O=C(Nc1ccc2c(c1)CNC2)c1cc(F)cc2[nH]ncc12` it is 1.59 ×10⁻⁶ cm/s. On the same count and under the same terms, the figure for `N#C[C@H](Nc1ccc2c(c1)CNC2)c1cc(Cl)cc2[nH]ncc12` (racemic) is 1.1 ×10⁻⁶ cm/s; for `Cc1c(C(=O)Nc2cc([C@H]3CCOC3)ccn2)cc(C2CC2)n1C` (racemic) it is 27.2 ×10⁻⁶ cm/s; for `N#C[C@H](Nc1cccc(-c2nn[nH]n2)c1)c1cc(Cl)cc(NC(=O)OCc2ccccc2)c1` (racemic) it is 3.23 ×10⁻⁶ cm/s.

With `CNC(=O)c1cccc(-c2cc3c(N[C@H](c4ccc5c(c4)S(=O)(=O)CCC5)C(C)C)ncnc3[nH]2)c1` (single isomer, unassigned), the Papp is 0.502 ×10⁻⁶ cm/s and 0.627 ×10⁻⁶ cm/s. Regarding `NCCc1ccc(NC(=O)c2cc(Cl)cc(NC(=O)OCc3ccccc3)c2)cc1`, the Papp amounted to 0.791 ×10⁻⁶ cm/s.

Turning to `O=C(O)c1cc(Cl)ccc1S(=O)(=O)NC1CCN(c2nc(C3CC3)cc(C(F)(F)F)n2)CC1`, the Papp was 3.65 ×10⁻⁶ cm/s. Still for that read-out and setting: next, `NCc1cccc(NC(=O)c2cc(Cl)cc(CN)c2)c1`: 1.96 ×10⁻⁶ cm/s.

`N#C[C@H](Nc1cccc(C(=O)O)c1)c1cc(Cl)cc2[nH]ncc12` (racemic) showed a Papp of 1.22 ×10⁻⁶ cm/s. Compound `C=CC[C@H](Nc1ccc(-c2nn[nH]n2)cc1)c1cc(Cl)cc(NC(=O)OCc2ccccc2)c1` (racemic) yielded a Papp of 2.6 ×10⁻⁶ cm/s. Take `O=C(O)c1cc(Cl)c(F)cc1S(=O)(=O)Nc1ccc(Oc2ccccc2Cl)cc1`: the Papp is 4.29 ×10⁻⁶ cm/s. Compound `Cc1cc(-c2ccc([C@H](NC(=O)OCc3ccccc3)C(=O)Nc3cccc(CN)c3)cc2)cs1` (racemic) came in with a Papp of 1.19 ×10⁻⁶ cm/s. This Papp is about 3.6-fold lower than that of the compound before. With `CCNC(=O)c1cc2c(N[C@H](c3ccc4c(c3)OCCO4)C(C)C)ncnc2[nH]1` (single isomer, unassigned), the Papp is 2.7 ×10⁻⁶ cm/s and 2.9 ×10⁻⁶ cm/s. On the same count and under the same terms, the figure for `NCc1cccc(NC(=O)c2cc(OCc3ccccc3)ccc2CNC(=O)OCc2ccccc2)c1` is 1.75 ×10⁻⁶ cm/s. Same read-out and setting: the figure for `NCc1cccc([C@H]2C[C@@H]2c2cc(Cl)cc(NC(=O)OCc3ccccc3)c2)c1` (racemic) is 1.66 ×10⁻⁶ cm/s. In the case of `COc1ccc([C@H](Cc2nnn[nH]2)NC(=O)c2ncnc3[nH]ccc23)cc1` (racemic), the Papp turned out to be 1.39 ×10⁻⁶ cm/s. In the case of `CC(C)NC(=O)[C@H](Nc1ccc2c(c1)CNC2)c1cc(Cl)cc2[nH]c(-c3ccccc3)nc12` (racemic), the Papp amounted to 0.432 ×10⁻⁶ cm/s. Same read-out and setting: the figure for `c1ccc2sc(C3CCN(Cc4c[nH]c5ccccc45)CC3)nc2c1` is 5.82 ×10⁻⁶ cm/s; for `CNC(=O)[C@H](Nc1cc(Cl)cc(NC(=O)OCc2ccccc2)c1)c1cccc(-c2nn[nH]n2)c1` (racemic) it is 1.39 ×10⁻⁶ cm/s; for `CCOc1cccc(-c2ccc(S(=O)(=O)Nc3ccc(Cl)cc3C(=O)O)cc2)c1` it is 6.22 ×10⁻⁶ cm/s. On the same count and under the same terms, next, `O=C(Nc1cc(Cl)cc(C(=O)Nc2cccc(-n3nn[nH]c3=O)c2)c1)OCc1ccccc1`: 9.46 ×10⁻⁶ cm/s. Same read-out and setting: next, `CC(C)[C@H](Nc1ncnc2[nH]c(C(=O)N[C@H]3CCN(C)C3)cc12)c1ccc2c(c1)S(=O)(=O)CCC2` (single isomer, unassigned): 0.175 ×10⁻⁶ cm/s and 0.325 ×10⁻⁶ cm/s; `CC(C)CNC(=O)c1cc(Cl)c(F)cc1NS(=O)(=O)c1ccc(Oc2ccccc2Cl)cc1`: 2.39 ×10⁻⁶ cm/s; `NCc1cccc(NC(=O)[C@H](NC(=O)OCc2ccccc2)C(C2CCC2)C2CCC2)c1` (racemic): 1.6 ×10⁻⁶ cm/s. In turn, `O=C(O)c1cc(Cl)ccc1NS(=O)(=O)c1ccc(-c2ccccc2Cl)cc1` gave a Papp of 7.59 ×10⁻⁶ cm/s. With `CC(C)[C@H](Nc1ncnc2[nH]ccc12)c1ccc2c(c1)S(=O)(=O)CCC2` (single isomer, unassigned), the Papp was 5.5 ×10⁻⁶ cm/s and 3.55 ×10⁻⁶ cm/s.

`NCc1cccc(NC(=O)[C@H](NC(=O)OCc2ccccc2)C2CCCCC2)c1` (racemic) came in with a Papp of 1.58 ×10⁻⁶ cm/s.

Compound `O=C(NCC(F)(F)F)c1cc(Cl)c(F)cc1NS(=O)(=O)c1ccc(Oc2ccccc2Cl)cc1` showed a Papp of 2.4 ×10⁻⁶ cm/s. Consider `NCc1cccc(NC(=O)CN(C(=O)OCc2ccccc2)c2ccc(OCc3ccccc3)cc2)c1`, for which the apparent permeability (Papp) was 0.899 ×10⁻⁶ cm/s. The same measure, in the same setting: the figure for `O=C(Nc1cc(Cl)cc(C(=O)Nc2ccc3c(c2)CNC3)c1)OCc1ccccc1` is 1.25 ×10⁻⁶ cm/s; for `Cc1cc(OCc2ccccc2)ccc1NS(=O)(=O)c1ccc(Cl)cc1C(=O)O` it is 4.61 ×10⁻⁶ cm/s.

Details in a further data set: not given
`Cc1c(C(=O)Nc2cc(-c3cccnc3)ccn2)cc(C2CC2)n1C`: the solubility (kinetic) was found to be 176 µM (≈ 58.5 µg/mL).

As to `O=C(N[C@H]1[C@H]2CCCCC[C@H]2[C@H]1C(=O)Nc1cccc(C2CCNCC2)c1)OCc1ccccc1` (racemic), the kinetic solubility turned out to be 49 µM (≈ 23.3 µg/mL). This solubility kinetic lies about 3.6-fold lower than the previous one. In the case of `NCc1cccc(NC(=O)C[C@H](NC(=O)OCc2ccccc2)c2ccc(OCc3ccccc3)c(Br)c2)c1` (racemic), the kinetic solubility was 21 µM (≈ 12.4 µg/mL). On the same count and under the same terms, next, `C=CC[C@H](Nc1cccc(-c2nn[nH]n2)c1)c1cc(Cl)cc(NC(=O)OCc2ccccc2)c1` (racemic): 332 µM (≈ 158 µg/mL); `NCc1cccc(NC(=O)C[C@H](NC(=O)OCc2ccccc2)c2ccc(OCc3ccccc3)cc2)c1` (racemic): 17 µM (≈ 8.66 µg/mL); `Nc1nc(-c2ccccc2)nc2[nH]nc(Nc3ccc(C(F)(F)F)cc3)c12`: 2 µM (≈ 0.741 µg/mL).

As for `CNC(=O)c1c[nH]c2ncnc(N[C@H](c3ccc4c(c3)S(=O)(=O)CCC4)C(C)C)c12` (single isomer, unassigned), the kinetic solubility was 336 µM and 204 µM. On the same count and under the same terms, the figure for `CC[C@H](Cc1nnn[nH]1)c1ccc(NC(=O)c2cc(Cl)cc(NC(=O)OCc3ccccc3)c2)cc1` (racemic) is 60 µM (≈ 30.3 µg/mL); for `N#C[C@H](Nc1ccc2c(c1)CNC2)c1cc(Cl)cc2[nH]ncc12` (racemic) it is 297 µM (≈ 96.2 µg/mL); for `N#C[C@H](Nc1cccc(-c2nn[nH]n2)c1)c1cc(Cl)cc(NC(=O)OCc2ccccc2)c1` (racemic) it is 344 µM (≈ 158 µg/mL). In the case of `CNC(=O)c1cccc(-c2cc3c(N[C@H](c4ccc5c(c4)S(=O)(=O)CCC5)C(C)C)ncnc3[nH]2)c1` (single isomer, unassigned), the solubility (kinetic) was 13 µM and 15 µM.

On to `NCCc1ccc(NC(=O)c2cc(Cl)cc(NC(=O)OCc3ccccc3)c2)cc1`, for which the solubility (kinetic) worked out at 88 µM (≈ 37.3 µg/mL). `O=C(O)c1cc(Cl)ccc1S(=O)(=O)NC1CCN(c2nc(C3CC3)cc(C(F)(F)F)n2)CC1` showed a solubility (kinetic) of 380 µM (≈ 192 µg/mL). Against the preceding compound, the solubility kinetic is about 4.3-fold higher. Compound `NCc1cccc(NC(=O)c2cc(Cl)cc(CN)c2)c1` returned a kinetic solubility of 375 µM (≈ 109 µg/mL). On the same count and under the same terms, next, `N#C[C@H](Nc1cccc(C(=O)O)c1)c1cc(Cl)cc2[nH]ncc12` (racemic): 112 µM (≈ 36.6 µg/mL); `O=C(O)c1cc(Cl)c(F)cc1S(=O)(=O)Nc1ccc(Oc2ccccc2Cl)cc1`: 396 µM (≈ 181 µg/mL). With `Cc1cc(-c2ccc([C@H](NC(=O)OCc3ccccc3)C(=O)Nc3cccc(CN)c3)cc2)cs1` (racemic), the kinetic solubility is 8 µM (≈ 3.88 µg/mL). Still for that read-out and setting: the figure for `NCc1cccc(NC(=O)c2cc(OCc3ccccc3)ccc2CNC(=O)OCc2ccccc2)c1` is 14 µM (≈ 6.94 µg/mL).

Compound `NCc1cccc([C@H]2C[C@@H]2c2cc(Cl)cc(NC(=O)OCc3ccccc3)c2)c1` (racemic) yielded a solubility (kinetic) of 50 µM (≈ 20.3 µg/mL).

`COc1ccc([C@H](Cc2nnn[nH]2)NC(=O)c2ncnc3[nH]ccc23)cc1` (racemic): the solubility (kinetic) was 395 µM (≈ 144 µg/mL). On to `CC(C)NC(=O)[C@H](Nc1ccc2c(c1)CNC2)c1cc(Cl)cc2[nH]c(-c3ccccc3)nc12` (racemic), for which the solubility (kinetic) came out at 154 µM (≈ 70.8 µg/mL). `c1ccc2sc(C3CCN(Cc4c[nH]c5ccccc45)CC3)nc2c1` registered a solubility (kinetic) of 119 µM (≈ 41.4 µg/mL). With `CNC(=O)[C@H](Nc1cc(Cl)cc(NC(=O)OCc2ccccc2)c1)c1cccc(-c2nn[nH]n2)c1` (racemic), the kinetic solubility turned out to be 333 µM (≈ 164 µg/mL).

As to `CCOc1cccc(-c2ccc(S(=O)(=O)Nc3ccc(Cl)cc3C(=O)O)cc2)c1`, the kinetic solubility amounted to 392 µM (≈ 169 µg/mL).

`O=C(Nc1cc(Cl)cc(C(=O)Nc2cccc(-n3nn[nH]c3=O)c2)c1)OCc1ccccc1` showed a kinetic solubility of 107 µM (≈ 49.7 µg/mL). The same measure, in the same setting: the figure for `CC(C)[C@H](Nc1ncnc2[nH]c(C(=O)N[C@H]3CCN(C)C3)cc12)c1ccc2c(c1)S(=O)(=O)CCC2` (single isomer, unassigned) is 396 µM and 392 µM; for `CC(C)CNC(=O)c1cc(Cl)c(F)cc1NS(=O)(=O)c1ccc(Oc2ccccc2Cl)cc1` it is 4 µM (≈ 2.05 µg/mL); for `O=C(O)c1cc(Cl)ccc1NS(=O)(=O)c1ccc(-c2ccccc2Cl)cc1` it is 397 µM (≈ 168 µg/mL).

`CC(C)[C@H](Nc1ncnc2[nH]ccc12)c1ccc2c(c1)S(=O)(=O)CCC2` (single isomer, unassigned): the solubility (kinetic) was 374 µM and 386 µM.

In turn, `O=C(NCC(F)(F)F)c1cc(Cl)c(F)cc1NS(=O)(=O)c1ccc(Oc2ccccc2Cl)cc1` showed a kinetic solubility of 14 µM (≈ 7.52 µg/mL). Same read-out and setting: the figure for `NCc1cccc(NC(=O)CN(C(=O)OCc2ccccc2)c2ccc(OCc3ccccc3)cc2)c1` is 56 µM (≈ 27.8 µg/mL); for `O=C(Nc1cc(Cl)cc(C(=O)Nc2ccc3c(c2)CNC3)c1)OCc1ccccc1` it is 35 µM (≈ 14.8 µg/mL). Same read-out and setting: the figure for `Cc1cc(OCc2ccccc2)ccc1NS(=O)(=O)c1ccc(Cl)cc1C(=O)O` is 394 µM (≈ 170 µg/mL).

Values taken from the ASAP Discovery antiviral challenge data (2025).
